According to US12097200B2, “Combination of BI853520 with chemotherapeutic drugs” (INXMED (NANJING) CO., LTD., priority 2020, dated 2024):
Values joined by “and” are separate entries in the source; they are usually repeats but may differ in a detail not shown here. Equal values may be shown once.

What was measured:
[1] = system: NCI-H520 cells; conditions: NCI-H520 xenograft, day 22, combination of both
Description: Mice were approximately 6 weeks old. There were 5 mice in each group.
The cell concentration of the culture was maintained between 8×10^6 to 12×10^7 cells/tissue culture flask.
Cisplatin was dissolved in 0.9% saline.
Statistical evaluation was performed using the Student's t-test function in Microsoft Excel, utilizing a two-tailed distribution and a two-sample equal variance type.

[2] = system: A2780 cells; assay: Antitumor activity in mouse model of human ovarian cancer (A2780 xenograft); type: in vivo
Description: (§1) For tumor volume, absolute values were used.
(§2) Appropriate statistical methods were used for evaluation.
A2780 cells harboring PTEN gene mutations were obtained from ECACC (93112519).

[3] = system: CTG-1498; assay: Antitumor activity in ovarian cancer PDX model CTG-1498; type: in vivo, mouse; conditions: CTG-1498 (carboplatin and paclitaxel-resistant); 98 days until end of test; doses as Table 3
Description: (§3) Body weights (at start of dosing) were approximately 20 grams. […] Immunocompromised female mice were housed in HEPA ventilated cages (Innocage® IVC, Innovive USA) at 68-74° F. (20-23° C.) and 30-70% humidity under a 12-hour light/12-hour dark cycle. […] Animals with >10% body weight loss compared to day 0 received DietAel 76A (ClearH2O®, Portland, ME) for free. There were 3 mice in each group.
(§4) Mice were implanted with tumor cells from the ChampionsTumorGraft® ovarian model, which was established from patients previously treated with platinum-based therapy. After tumors reached 1000-1500 mm^3, they were collected, and tumor fragments SCs were implanted in the left flank of female pre-study mice. Each study animal was implanted with a specific passage batch. Tumor volume was measured twice a week with calipers to monitor tumor growth, and tumor volume (TV) was calculated using the formula (0.52×[length×width^2]). […] After initiation of dosing, animals were weighed daily using a digital scale and TV was measured twice weekly. […]
(§5) Inhibitory effect on tumor growth was determined by calculating TGI (100%×[1−(final MTV−initial MTV of the treatment group)/(final MTV−initial MTV of the control group)]). […]
(§6) CR: no TV could be detected (<4×4 mm^2), in 2 consecutive measurements […]

[4] = system: GXA 3039 gastric cancer PDX model
Description: Mice were housed in individual ventilated cages ([sequence] Sealsafe™-IVC-System, [sequence], Hohenpeissenberg, Germany), and type II or III cages were selected according to the number of experimental animals. The cages were under the conditions: 14L:10D light-dark cycle, air exchange (AC) rate of 60-65 AC/hr in the cage, 25±1° C. and 40-70% humidity. […] Water and diet were changed twice a week, and all materials were autoclaved before use.
Tumor fragments were implanted subcutaneously into the flank of female pre-study mice. […] Animals that were not randomized were euthanized. The date of randomization was designated as day 0 of the test, and dosing began on day 1. […] If less than 70% of the original number of mice survived (i.e. less than 6 out of 8), the entire group was terminated. […] Tolerability was assessed using the group with the largest median body weight loss (BWL) among groups.
Inhibition of tumor growth was determined by calculating TGI.
Additional endpoints used to assess efficacy included: time to tumor volume doubling/quadrupling and tumor growth delay/time to tumor progression/tumor repopulation.
Time to tumor volume doubling/quadrupling: The time to tumor volume doubling/quadrupling (Td/Tq) for the test and control groups was defined as the time interval (in days) required for each group to reach 200%/400% of the median RTV. The relative volume of a single tumor on day X (RTVx [%]) was obtained by dividing the absolute volume of the tumor on day X (Tx) by the absolute volume of the tumor on day 0 (T0) and then multiplying it by 100, as follows:
Tumor growth delay/time to tumor progression/tumor repopulation: To assess the difference in time to tumor progression/tumor repopulation after tumor regression during the no-dose observation period (tumor growth delay, TGD), Kaplan-Meier survival analysis was used. A relative tumor volume of 400% was defined as the endpoint.
The control group for oral administration was 0.5% Natrosol. The control group for intravenous administration was 0.9% saline. Each dose was 10 ml/kg.
Data were used for statistical analysis at the end of the study. The one-tailed nonparametric Mann-Whitney-Wilcoxon U test was used with the significance level a set at 0.05. The p-values obtained from the U-test were adjusted using the Bonferroni-Holm correction.
To assess the statistical significance of differences in time to tumor progression/tumor growth delay (TGD) using 400% of RTV as the trial endpoint, the Kaplan-Meier survival mode statistic was used in conjunction with the log-rank Mantel-Cox test for pairwise comparisons.
Additionally, to assess tolerance to treatment, a two-tailed nonparametric Mann-Whitney-Wilcoxon U test was performed using body weights determined at the end of the dosing period (i.e., on the day TGI values were calculated).
By convention, p-values≤0.05 represented significant tumor inhibition or weight loss.

[5] = system: CTG-1809; assay: Antitumor activity in ovarian cancer PDX model CTG-1809; type: in vivo, mouse; conditions: CTG-1809 (carboplatin and paclitaxel-resistant); 36 days until end of test; doses as Table 3
Description: as §3, §4, §5, §6

[6] = system: TOV-21G cells; assay: Antitumor activity in mouse model of human ovarian cancer (TOV-21G xenograft); type: in vivo; conditions: combination of both
Description: as §1, §2
TOV-21G cells harboring KRAS and PIK3CA gene mutations were obtained from ATCC (CRL-11730).

[7] = system: KYSE-70 cells; assay: Antitumor activity in mouse xenograft model of human esophageal cancer (KYSE-70); type: in vivo; conditions: KYSE-70 xenograft, combination of both
[8] = system: CTG-0992; assay: Antitumor activity in ovarian cancer PDX model CTG-0992; type: in vivo, mouse; conditions: CTG-0992 (carboplatin and paclitaxel-resistant); 60 days until end of test; doses as Table 3
Description: as §3, §4, §5, §6

[9] = system: CTG-1602; assay: Antitumor activity in ovarian cancer PDX model CTG-1602; type: in vivo, mouse; conditions: 14 days until end of test, doses as Table 3
Description: as §3, §4, §5, §6

[10] = system: CTG-0791; assay: Antitumor activity in ovarian cancer PDX model CTG-0791; type: in vivo, mouse; conditions: CTG-0791 (carboplatin and paclitaxel-resistant); 35 days until end of test; doses as Table 3
Description: as §3, §4, §5, §6

[11] = system: CTG-1649; assay: Antitumor activity in ovarian cancer PDX model CTG-1649; type: in vivo, mouse; conditions: 40 days until end of test, doses as Table 3
Description: as §3, §4, §5, §6

[12] = system: CTG-0958; assay: Antitumor activity in ovarian cancer PDX model CTG-0958; type: in vivo, mouse; conditions: 52 days until end of test, doses as Table 3
Description: as §3, §4, §5, §6

[13] = system: CTG-1395; assay: Antitumor activity in ovarian cancer PDX model CTG-1395; type: in vivo, mouse; conditions: 33 days until end of test, doses as Table 3
Description: as §3, §4, §5, §6

[14] = system: CTG-1086; assay: Antitumor activity in ovarian cancer PDX model CTG-1086; type: in vivo, mouse; conditions: 28 days until end of test, doses as Table 3
Description: as §3, §4, §5, §6

[15] = system: CTG-0252; assay: Antitumor activity in ovarian cancer PDX model CTG-0252; type: in vivo, mouse; conditions: 7 days until end of test, BI 853520 50 mg/kg PO BID, PLD 3 mg/kg IV q7d, carboplatin 25 mg/kg IP + paclitaxel 20 mg/kg IV q7d
Description: as §3, §4, §5, §6

[16] = system: CTG-1301; assay: Antitumor activity in ovarian cancer PDX model CTG-1301; type: in vivo, mouse; conditions: CTG-1301 (carboplatin and paclitaxel-resistant); 38 days until end of test; doses as Table 3
Description: as §3, §4, §5, §6

[17] = system: CTG-1433; assay: Antitumor activity in ovarian cancer PDX model CTG-1433; type: in vivo, mouse; conditions: CTG-1433 (carboplatin and paclitaxel-resistant); 49 days until end of test; doses as Table 3
Description: as §3, §4, §5, §6

[18] = system: CTG-1427; assay: Antitumor activity in ovarian cancer PDX model CTG-1427; type: in vivo, mouse; conditions: 42 days until end of test, doses as Table 3
Description: as §3, §4, §5, §6

[19] = system: CTG-0964; assay: Antitumor activity in ovarian cancer PDX model CTG-0964; type: in vivo, mouse; conditions: CTG-0964 (carboplatin and paclitaxel-resistant); 35 days until end of test; doses as Table 3
Description: as §3, §4, §5, §6

[20] = system: CTG-1677; assay: Antitumor activity in ovarian cancer PDX model CTG-1677; type: in vivo, mouse; conditions: 32 days until end of test, doses as Table 3
Description: as §3, §4, §5, §6

[21] = system: CTG-1624; assay: Antitumor activity in ovarian cancer PDX model CTG-1624; type: in vivo, mouse; conditions: 38 days until end of test, doses as Table 3
Description: as §3, §4, §5, §6

[22] = system: CTG-0956; assay: Antitumor activity in ovarian cancer PDX model CTG-0956; type: in vivo, mouse; conditions: CTG-0956 (carboplatin and paclitaxel-resistant); 67 days until end of test; doses as Table 3
Description: as §3, §4, §5, §6

[23] = system: SKOV-3 cells; assay: Antitumor activity in mouse model of human ovarian cancer (SKOV-3 xenograft); type: in vivo; conditions: combination of both
Description: as §1, §2
SKOV-3 cells harboring CDKN2, MLH1, PIK3CA and TP53 gene mutations were obtained from ATCC (HTB-77).
PLD (Doxil) was purchased from Johnson & Johnson and dissolved in sterile 5% glucose solution.
Treatment was initiated when the median tumor volume was between 70 and 110 mm^3.

[24] = system: PC-3 cells; assay: Antitumor activity in mouse xenograft model of human prostate cancer (PC-3); conditions: PC-3 xenograft, combination of both
[25] = BI 853520 50 mg/kg qd, cisplatin 5 mg/kg IP q7d
[26] = day 22, BI 853520 12.5 mg/kg qd by gavage, PLD 1 mg/kg q7d i.v.
[27] = BI 853520 50 mg/kg qd, docetaxel 10 mg/kg q7d
[28] = BI 853520 25 mg/kg qd, docetaxel 7.5 mg/kg q7d

## COc1cc(C(=O)NC2CCN(C)CC2)c(F)cc1Nc1ncc(C(F)(F)F)c(Oc2cccc3c2C(=O)N(C)C3)n1 [BI 853520, 2-fluoro-5-methoxy-4-[(4-(2-methyl-3-oxo-2,3-dihydro-1H-isoindole-4-oxy)-5-trifluoromethyl-pyrimidin-2-yl)amino]-N-(1-methyl-piperidin-4-yl)benzamide]
[1]; BI 853520 50 mg/kg qd by gavage, cisplatin 5 mg/kg IP once a week
  Median tumor volume: 352 mm^3
[1]; [25]
  Median TGI: 54%
  Tumor regression (animals with regression/animals in group): 0/7
[2]; BI 853520 25 and 50 mg/kg qd, PLD 5 mg/kg q7d, combination 50 + 5 mg/kg
  Antitumor effect (in words): efficacy of BI 853520 was observed at medium and high dose levels
[2]; day 1 to day 15, BI 853520 12.5 mg/kg qd
  TGI: 19%
[2]; day 1 to day 15, BI 853520 25 mg/kg qd
  TGI: 83%
[2]; day 1 to day 15, BI 853520 50 mg/kg qd, PLD 5 mg/kg q7d, combination of both
  TGI: 85%
[2]; day 15, BI 853520 12.5 mg/kg qd by gavage
  Median tumor volume: 968 mm^3
[2]; day 15, BI 853520 12.5 mg/kg qd, 12.5 mg/kg
  Tumor regression (animals with regression/animals in group): no tumor regression and 0/10
[2]; day 15, BI 853520 25 mg/kg qd by gavage
  Median tumor volume: 284 mm^3
[2]; day 15, BI 853520 25 mg/kg qd, 25 mg/kg
  Tumor regression (animals with regression/animals in group): no tumor regression and 0/10
[2]; day 15, BI 853520 50 mg/kg qd by gavage, PLD 5 mg/kg q7d i.v., combination of both
  Median tumor volume: 262 mm^3
[2]; day 15, BI 853520 50 mg/kg qd, PLD 5 mg/kg q7d, combination of both
  Tumor regression (animals with regression/animals in group): no tumor regression and 0/10
[3]
  TGI (%): 128%
[4]; GXA 3039 PDX, doses as Table 8
  Antitumor effect (in words): did not show any antitumor efficacy
[4]; GXA 3039 PDX, time to 200% of median RTV, doses as Table 8
  Td (time to tumor volume doubling): 8.1 days
[4]; GXA 3039 PDX, time to 400% of median RTV, nr = not reached until end of test, doses as Table 8
  Tq (time to tumor volume quadrupling): 41.2 days
[4]; GXA 3039 gastric cancer PDX, day 36, BI 853520 50 mg/kg/d PO days 1-35, docetaxel 10 mg/kg IV days 1, 8, 15, 22, 29, combination of both
  TGI [%] (d): 0% and 0(36) %
[4]; female, BomTac:NMRI-Foxn1nu, mouse, in vivo
  Survival rate: 4/8
[5]
  TGI (%): −58%
[6]; BI 853520 12.5 mg/kg qd, PLD 1 mg/kg q7d
  Antitumor effect (in words): good efficacy at low doses
[6]; day 1 to day 22, median tumor volumes, BI 853520 12.5 mg/kg qd, PLD 1 mg/kg q7d
  TGI: 67%
[6]; [26]
  Median tumor volume: 271 mm^3
  Tumor regression (animals with regression/animals in group): no tumor regression and 0/7
[7]; day 42, BI 853520 50 mg/kg qd by gavage, docetaxel 10 mg/kg q7d i.v.
  Median tumor volume: 497 mm^3
[7]; [27]
  Antitumor effect (in words): no inhibitory effect on tumor growth
  Change in median body weight: 8.8%
  TGI: 42%
  Tumor regression (animals with regression/animals in group): 1 of the 7 and 1/7
[8]
  TGI (%): 49%
[9]
  TGI (%): −1%
[10]
  TGI (%): −21%
[11]
  TGI (%): 71%
[12]
  TGI (%): 99%
[13]
  TGI (%): 41%
[14]
  TGI (%): 39%
[15]
  TGI (%): 54%
[16]
  TGI (%): 43%
[17]
  TGI (%): 61%
[18]
  TGI (%): 59%
[19]
  TGI (%): 66%
[20]
  TGI (%): 51%
[21]
  TGI (%): 22%
[22]
  TGI (%): 77%
[23]; day 1 to day 22, median tumor volumes, BI 853520 50 mg/kg qd, PLD 5 mg/kg q7d
  TGI: 57%
[23]; day 22, BI 853520 50 mg/kg qd by gavage, PLD 5 mg/kg q7d i.v.
  Median tumor volume: 306 mm^3
[23]; day 22, BI 853520 50 mg/kg qd, PLD 5 mg/kg q7d
  Tumor regression (animals with regression/animals in group): no tumor regression and 0/7
[24]; day 35 (withdrawal on day 28), BI 853520 25 mg/kg qd by gavage, docetaxel 7.5 mg/kg q7d i.v.
  Median tumor volume: 316 mm^3
[24]; [28]
  Antitumor effect (in words): certain inhibitory effect on tumor growth
  Change in median body weight: 2.4%
  TGI: 66%
  Tumor regression (animals with regression/animals in group): 0/7
